From patent US9364448B2, “Nitisinone for treatment of oculocutaneous/ocular albinism and for increasing pigmentation” (The United States of America, as represented by the …, priority 2010, dated 2016) come the findings set out here.

The test system of assay [1] is C57BL/6J-Tyr^c-h/c-h mice (OCA1b model). Description: Plasma tyrosine in NTBC-treated Tyr^c-h/c-h (Himalayan) mice. It counts as in vivo, mouse. The method, then:
Drug Dosing and Monitoring.
Plasma tyrosine was assayed from retro-orbital blood taken from mice at 1 week, and 4 weeks into treatment. Because the volume of blood that could be obtained from non-terminal bleeds was small, the plasma from 2-3 mice was pooled to make a single measurement. Plasma samples were frozen immediately after collection on dry ice. Samples ready for assay were gently thawed, diluted with an equal volume of loading buffer (0.2 M lithium citrate, pH 2.2), and filtered using Vivaspin 500 (3000 Da molecular weight cut-off, Sartorius Stedman Biotech, Goettingen, Germany) spun in a fixed angle centrifuge at about 14000×g for 60 minutes at a temperature of about 16-20° C. The supernatant was collected and tyrosine was quantitated on a Biochrom 30 […] (Biochrom, Ltd., Cambridge, UK) using the manufacturer's specifications.
Using the same protocol as described above, baseline plasma tyrosine, coat color (gross and microscopic), anterior segment pigment, and posterior segment pigment was documented for each mouse prior to initiating experiments. […] These treated mice were compared to an age- and gender-matched cohort of C57BL/6J-Tyr^c-h/c-h mice over the same time period. Corneal irritation due to NTBC treatment was monitored daily. At the start of treatment, an area of hair was plucked/shaved from each mouse's back, which has the effect of stimulating new hair growth and possibly new pigment deposition in the hair shaft. At the end of four weeks' time, plasma tyrosine concentrations were assessed in both treated and control animals.

Assay [2] relates to melanocytes from a patient with OCA-1B. Description: Human melanocyte melanin assay, OCA-1B patient. It counts as cell-based. Conditions: 1 mM tyrosine, p=0.0025, not to wild-type level. The method, then:
Human melanocyte culture and melanin assay. Human melanocytes were established from skin punch biopsies. Skin specimens were washed with PBS then treated with 0.25% trypsin-EDTA (Gibco 25200) for about 2 hours followed by vigorous vortexing to separate the epidermis. The epidermis was sectioned and attached to scored patches on the bottom of a 6-well polystyrene culture dish before being covered with melanocyte media. About 1000 ml of melanocyte media was made from 950 ml Ham's F10 (Gibco 1550), 25 ml FBS, 5 ug bFGF (Sigma F0291), 10 μg endothelin (Sigma, E7764, Sigma Chemicals, St. Louis, Mo.), 7.5 mg IBMX (Sigma 17018), 30 μg cholera toxin (Sigma C8052), 3.3 μg TPA (Sigma P8139), 10 ml PenStrepGlutamine, 1 ml fungizone and the media was 0.22 μm filtered.
Melanocytes were plated on 6 well dishes and grown to confluency. Melanin assays were run in triplicate by supplementing three wells per plate with 1 mM tyrosine (Sigma T8566), using the remaining 3 wells as untreated controls. Treatment time was approximately one week. […] The OD475 was measured and converted to melanin content via a standard curve using synthetic melanin (Sigma M0418). The data were normalized to protein content, determined using a bicinchoninic (BCA) assay kit (BioRad, Inc., Hercules, Calif.). Differences between treated and untreated measurements were analyzed with a two-tailed unpaired t-test. […]

Take `O=C1CCCC(=O)C1C(=O)c1ccc(C(F)(F)F)cc1[N+](=O)[O-]` [NTBC, 2-(-2-nitro-4 trifluoromethylbenzoyl)-1,3 cyclohexanedione]: the Plasma tyrosine concentration in assay [1] (Tyr^c-h (OCA1b model), 4 mg/kg q.o.d. oral, after 30 days, n = 4) was 305 ± 35 μM (n = 4,. In addition, the “Increase in steady-state plasma tyrosine concentrations” value in assay [1] (Tyr^c-h/c-h mice, 4 mg/kg orally every other day, vs control) is reported as approximately 4 fold. In addition, the “Plasma tyrosine concentrations, treated vs control” value in assay [1] (Tyr^c-h/c-h mice, dose as in Example 1 (1 mg/kg every other day), one month) is recorded as “not statistically significantly different”.

Turning to `N[C@@H](Cc1ccc(O)cc1)C(=O)O` [tyrosine], the Pigmentation result in assay [2] is given as “significantly increased pigmentation”.
